In patent US20180201614A1, “BICYCLIC COMPOUNDS” (KALYRA PHARMACEUTICALS, INC., priority 2015, published 2018):

What was measured:
human EGFR (T790M/L858R) = biological target: T1, human EGFR (T790M/L858R) (Homo sapiens, UniProt P00533, L858R/T790M); test: EGFR biochemical enzyme assay (HTRF KinEASE TK); details: 30 μM ATP
T1 construct: with amino acids 696-end containing the T790M and L858R mutations; GST (N); purchased Millipore
Procedure: The inhibitory activity of a compound against EGFR (T790M/L858R) were determined with CisBio HTRF (homogenous time-resolved fluorescence) KinEASE TK (#62TKOPEC). The enzyme reaction contained recombinant N-terminal GST-tagged human EGFR (T790M/L858R), which phosphorylates the HTRF tyrosine kinase biotinylated substrate.
The sequence of the substrate is proprietary to CisBio. Test compounds were serially diluted in 100% (v/v) DMSO before being acoustically dispensed from an Echo 555 (Labcyte) into black Corning 1536-well assay plates. Kinase activity assays were performed in a total reaction volume of 3 μL per well. A 1.5 μL enzyme reaction consisted of 1.6 nM EGFR ([…], L858R), 1 mM DTT, and 10 mM MgCl2. A 1.5 μL substrate mix consisted of 1 μM TK substrate, 30 μM ATP, 1 mM DTT, and 10 mM MgCl2. Following a 50 mins incubation, 3 μL of stop mix was added, which consisted of 250 nM Strep-XL665 and TK Ab-Cryptate diluted in kit detection buffer. The plates were incubated for 1 h before being read on Pherastar using standard HTRF settings. N-terminal GST-tagged recombinant human EGF receptor, with amino acids 696-end containing the T790M and L858R mutations, was obtained from Millipore.

EGFR Del-19 = biological target: T2, EGFR Del-19 (Homo sapiens, UniProt P00533); test: EGFR biochemical enzyme assay, Del-19
T2 construct: as on the sister T790M/L858R enzyme

EGFR Wt = EGFR Wt (Homo sapiens, UniProt P00533); test: EGFR biochemical enzyme assay, Wt
IGF1R = IGF1R (Homo sapiens, UniProt P08069); test: Biochemical enzyme assay, IGF1R
INSR = INSR (Homo sapiens, UniProt P06213); test: Biochemical enzyme assay, INSR
[1] = test system: H1975 (L858R/T790M) cells; test: EGFR cell proliferation assay (CellTiter-Glo), H1975; type: cell-based; details: Homo sapiens, NCI-H1975, 3-5 days
Procedure: (§1) Cell Lines: A431 (WT), H1975 (L858R/T790M), PC9 (E746-A750 deletion): A431 cells were grown in DMEM (Invitrogen, Carlsbad, Calif.) supplemented with 10% FBS (HyClone, South Logan, Utah) and 1% Penicillin-Streptomycin (P/S, Lonza, Walkersville, Md.). H1975 cells were grown in RPMI 1640 (Invitrogen) supplemented with 10% FBS and 1% P/S. […] PC-9 cells were obtained from Japan. All cells were maintained and propagated as monolayer cultures at 37° C. in a humidified 5% CO2 incubator. All cells were cultured according to recommendations.
(§2) Cell proliferation was measured using the CellTiter-Glo® Luminescent Cell Viability Assay. The assay involved the addition of a single reagent (CellTiter-Glo® Reagent) directly to cells cultured in serum-supplemented medium. The assay used a one-step addition to induce cell lysis and generate a luminescent signal proportional to the amount of ATP present, which is directly proportional to the number of metabolically active cells present in culture.
(§3) Each compound evaluated was prepared as a DMSO stock solution (10 mM). Compounds were tested in duplicate on each plate, with an 11-point serial dilution curve (1:3 dilution). Compound treatment (50 μL) was added from the compound dilution plate to the cell plate. The highest compound concentration was 1 or 10 μM (final), with a 0.3% final DMSO (#D-5879, Sigma, St Louis, Mo.) concentration. Plates were then incubated at 37° C., 5% CO2. After 3-5 days of compound treatment, CellTiter-Glo® Reagent (#G7573, Promega, Madison, Wis.) was prepared in one of two ways. If thawing a frozen aliquot of CellTiter-Glo® Reagent, the aliquot was thawed and equilibrated to RT prior to use while keeping it protected from light. Alternatively, new bottles of CellTiter-Glo® Buffer and CellTiter-Glo® Substrate were thawed and equilibrated to RT prior to use. CellTiter-Glo® Buffer (100 mL) was transferred into the amber bottle containing CellTiter-Glo® Substrate to reconstitute the lyophilized enzyme/substrate mixture, forming the CellTiter-Glo® Reagent. The reconstituted reagent was mixed by gently inverting the contents to obtain a homogeneous solution, and went into solution easily in less than 1 min. Any unused reconstituted CellTiter-Glo® Reagent was immediately aliquoted and frozen at −20° C., and protected from light. Cell plates were equilibrated at RT for approximately 30 mins. An equi-volume amount of CellTiter-Glo® Reagent (100 μL) was added to each well. Plates were mixed for 2 mins on an orbital shaker to induce cell lysis, and then were allowed to incubate at RT for 10 mins to stabilize the luminescent signal. Luminescence was recorded using the PerkinElmer EnVision Excite Multilabel Reader used for endpoint reading for luminescence detection (Waltham, Mass.). Data was analyzed using a four-parameter fit in Microsoft Excel.

[2] = test system: PC9 (E746-A750 deletion) cells; test: EGFR cell proliferation assay (CellTiter-Glo), PC9; type: cell-based; details: 3-5 days
Procedure: as §1, §2, §3

A431 (WT) cells = test: EGFR cell proliferation assay (CellTiter-Glo), A431; type: cell-based; details: Homo sapiens, A-431, 3-5 days
Procedure: as §1, §2, §3

EGFR L858R = EGFR L858R (Homo sapiens, UniProt P00533, L858R); test: EGFR biochemical enzyme assay, L858R

INSR, sequence (P06213 28-1382, species assumed): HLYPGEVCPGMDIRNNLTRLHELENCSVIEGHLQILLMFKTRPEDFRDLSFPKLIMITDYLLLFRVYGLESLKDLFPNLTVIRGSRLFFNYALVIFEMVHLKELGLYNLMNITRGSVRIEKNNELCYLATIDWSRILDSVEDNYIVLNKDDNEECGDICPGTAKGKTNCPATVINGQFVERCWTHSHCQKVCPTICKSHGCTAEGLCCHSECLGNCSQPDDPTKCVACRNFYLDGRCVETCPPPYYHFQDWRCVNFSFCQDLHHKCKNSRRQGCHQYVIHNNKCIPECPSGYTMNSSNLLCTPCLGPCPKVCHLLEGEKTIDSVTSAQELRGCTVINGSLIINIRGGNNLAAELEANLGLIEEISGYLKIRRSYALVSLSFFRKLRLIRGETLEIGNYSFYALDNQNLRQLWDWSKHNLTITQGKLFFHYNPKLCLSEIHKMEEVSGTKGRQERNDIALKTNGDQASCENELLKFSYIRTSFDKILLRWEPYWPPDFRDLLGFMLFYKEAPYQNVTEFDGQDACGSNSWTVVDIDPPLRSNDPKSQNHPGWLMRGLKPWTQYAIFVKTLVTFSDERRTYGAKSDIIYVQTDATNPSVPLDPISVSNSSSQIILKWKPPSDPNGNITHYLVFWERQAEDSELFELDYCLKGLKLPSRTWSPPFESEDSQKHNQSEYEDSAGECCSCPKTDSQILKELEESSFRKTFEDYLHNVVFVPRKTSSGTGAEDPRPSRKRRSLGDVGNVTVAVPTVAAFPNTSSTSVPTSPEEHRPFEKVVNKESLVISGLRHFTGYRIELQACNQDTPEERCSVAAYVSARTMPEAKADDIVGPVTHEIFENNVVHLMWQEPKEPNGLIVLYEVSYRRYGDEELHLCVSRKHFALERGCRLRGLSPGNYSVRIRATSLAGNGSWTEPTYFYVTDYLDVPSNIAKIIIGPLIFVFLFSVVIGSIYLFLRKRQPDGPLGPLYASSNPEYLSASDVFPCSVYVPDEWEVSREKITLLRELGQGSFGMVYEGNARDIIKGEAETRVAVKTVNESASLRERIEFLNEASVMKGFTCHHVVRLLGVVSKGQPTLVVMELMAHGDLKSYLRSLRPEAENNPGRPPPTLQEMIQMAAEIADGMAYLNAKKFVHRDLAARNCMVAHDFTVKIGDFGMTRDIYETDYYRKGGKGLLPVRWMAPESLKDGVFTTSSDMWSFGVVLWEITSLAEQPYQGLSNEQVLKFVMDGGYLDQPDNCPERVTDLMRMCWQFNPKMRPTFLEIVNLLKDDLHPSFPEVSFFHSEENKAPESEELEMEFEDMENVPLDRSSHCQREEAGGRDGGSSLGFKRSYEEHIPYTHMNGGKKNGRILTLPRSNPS
IGF1R, sequence (P08069 31-1367, species assumed): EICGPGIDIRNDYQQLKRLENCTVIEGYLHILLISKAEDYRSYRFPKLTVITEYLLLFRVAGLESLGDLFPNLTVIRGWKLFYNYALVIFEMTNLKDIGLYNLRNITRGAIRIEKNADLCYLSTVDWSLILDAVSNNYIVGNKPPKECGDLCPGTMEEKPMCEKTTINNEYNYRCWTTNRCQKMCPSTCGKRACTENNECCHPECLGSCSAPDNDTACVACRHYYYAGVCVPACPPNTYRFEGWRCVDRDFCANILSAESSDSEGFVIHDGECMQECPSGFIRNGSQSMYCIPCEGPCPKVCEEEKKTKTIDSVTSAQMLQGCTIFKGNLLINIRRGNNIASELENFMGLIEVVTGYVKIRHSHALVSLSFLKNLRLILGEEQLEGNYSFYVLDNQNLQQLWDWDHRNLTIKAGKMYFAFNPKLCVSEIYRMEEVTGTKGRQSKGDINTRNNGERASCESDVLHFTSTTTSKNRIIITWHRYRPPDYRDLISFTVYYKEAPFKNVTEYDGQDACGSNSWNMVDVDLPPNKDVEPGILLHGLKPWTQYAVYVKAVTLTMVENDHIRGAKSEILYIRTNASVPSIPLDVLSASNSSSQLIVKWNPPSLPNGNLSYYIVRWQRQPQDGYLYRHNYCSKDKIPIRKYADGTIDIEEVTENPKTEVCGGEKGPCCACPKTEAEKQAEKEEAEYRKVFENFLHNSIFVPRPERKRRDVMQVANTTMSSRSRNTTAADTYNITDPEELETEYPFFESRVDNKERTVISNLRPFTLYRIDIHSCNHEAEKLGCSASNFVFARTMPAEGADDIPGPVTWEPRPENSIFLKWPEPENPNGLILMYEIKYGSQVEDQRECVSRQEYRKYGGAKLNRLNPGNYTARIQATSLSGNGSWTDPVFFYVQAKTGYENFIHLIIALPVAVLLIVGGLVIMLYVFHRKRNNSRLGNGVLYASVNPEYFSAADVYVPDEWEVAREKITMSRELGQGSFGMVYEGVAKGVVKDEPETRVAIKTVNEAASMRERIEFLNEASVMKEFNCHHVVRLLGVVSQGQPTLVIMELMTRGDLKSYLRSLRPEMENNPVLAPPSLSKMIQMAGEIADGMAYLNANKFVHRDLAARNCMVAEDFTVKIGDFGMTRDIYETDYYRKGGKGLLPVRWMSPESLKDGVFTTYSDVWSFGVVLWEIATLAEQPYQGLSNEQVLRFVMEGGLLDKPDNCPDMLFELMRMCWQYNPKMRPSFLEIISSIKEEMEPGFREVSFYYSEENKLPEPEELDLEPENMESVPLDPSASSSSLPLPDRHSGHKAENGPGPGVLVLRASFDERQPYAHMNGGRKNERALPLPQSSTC
T1 sequence (P00533 696-1210 T790M/L858R): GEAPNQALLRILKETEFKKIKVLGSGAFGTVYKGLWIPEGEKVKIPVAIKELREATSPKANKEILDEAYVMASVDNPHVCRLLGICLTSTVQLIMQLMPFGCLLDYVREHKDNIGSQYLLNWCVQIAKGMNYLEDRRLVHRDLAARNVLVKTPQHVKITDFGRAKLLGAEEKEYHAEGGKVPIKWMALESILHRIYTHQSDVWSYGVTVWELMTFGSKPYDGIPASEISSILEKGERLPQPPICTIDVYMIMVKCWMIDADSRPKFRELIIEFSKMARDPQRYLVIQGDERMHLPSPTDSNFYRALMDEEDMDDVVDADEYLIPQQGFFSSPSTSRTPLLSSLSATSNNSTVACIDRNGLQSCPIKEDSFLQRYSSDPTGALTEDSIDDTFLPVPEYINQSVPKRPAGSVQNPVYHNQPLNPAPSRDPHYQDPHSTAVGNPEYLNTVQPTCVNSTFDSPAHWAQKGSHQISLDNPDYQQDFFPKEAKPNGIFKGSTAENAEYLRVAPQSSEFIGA
T2 sequence (P00533 with tags, fused parts or gaps DEL746-750): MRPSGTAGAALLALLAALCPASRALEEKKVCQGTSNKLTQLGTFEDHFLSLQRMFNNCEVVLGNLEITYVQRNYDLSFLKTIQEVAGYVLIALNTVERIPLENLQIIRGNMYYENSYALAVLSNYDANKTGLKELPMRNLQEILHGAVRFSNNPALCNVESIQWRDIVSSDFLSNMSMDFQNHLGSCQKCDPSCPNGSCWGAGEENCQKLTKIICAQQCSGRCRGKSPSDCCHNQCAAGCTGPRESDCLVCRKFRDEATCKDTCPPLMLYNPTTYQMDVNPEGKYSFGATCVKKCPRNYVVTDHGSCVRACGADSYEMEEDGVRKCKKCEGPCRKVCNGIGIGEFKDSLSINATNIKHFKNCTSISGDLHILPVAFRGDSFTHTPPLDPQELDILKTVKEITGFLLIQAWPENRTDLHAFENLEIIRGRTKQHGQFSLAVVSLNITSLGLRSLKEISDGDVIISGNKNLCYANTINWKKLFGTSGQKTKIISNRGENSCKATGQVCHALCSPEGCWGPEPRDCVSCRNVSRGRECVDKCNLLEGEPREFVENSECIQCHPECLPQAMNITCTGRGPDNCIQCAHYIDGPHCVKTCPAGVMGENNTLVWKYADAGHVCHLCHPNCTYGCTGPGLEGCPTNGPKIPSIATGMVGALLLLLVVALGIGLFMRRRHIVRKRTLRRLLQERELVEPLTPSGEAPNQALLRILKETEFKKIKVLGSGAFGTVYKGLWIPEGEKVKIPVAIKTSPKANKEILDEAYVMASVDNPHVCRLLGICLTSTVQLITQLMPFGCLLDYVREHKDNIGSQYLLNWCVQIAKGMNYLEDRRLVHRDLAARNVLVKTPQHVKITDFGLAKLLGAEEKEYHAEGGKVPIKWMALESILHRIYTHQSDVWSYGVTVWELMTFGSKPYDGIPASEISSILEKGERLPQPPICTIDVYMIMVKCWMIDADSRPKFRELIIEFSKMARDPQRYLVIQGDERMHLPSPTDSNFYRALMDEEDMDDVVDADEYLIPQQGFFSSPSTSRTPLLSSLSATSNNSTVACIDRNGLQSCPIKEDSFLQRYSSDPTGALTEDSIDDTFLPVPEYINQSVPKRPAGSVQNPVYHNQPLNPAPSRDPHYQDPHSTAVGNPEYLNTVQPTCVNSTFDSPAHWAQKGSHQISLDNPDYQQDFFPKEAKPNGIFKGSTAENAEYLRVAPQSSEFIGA

IC50 (human EGFR (T790M/L858R)) [nM] | IC50 (EGFR Del-19) [nM] | IC50 (EGFR Wt) [nM] | IC50 (IGF1R) [nM] | IC50 (INSR) [nM] | IC50 [1] [nM] | IC50 [2] [nM] | IC50 (A431 (WT) cells) [nM] | IC50 (EGFR L858R) [nM] | Structure (SMILES)
≤ 10 | ≤ 10 | ≤ 10 | ≥ 100 | ≥ 100 | < 50 | < 50 | 50 to 300 |  | C=CC(=O)N[C@@H]1CN(c2nc(Nc3cn(CCN(C)C)nc3OC)c3ncc(C)n3n2)C[C@H]1F [Example 5, N-((3R,4R)-1-(4-((1-(2-(dimethylamino)ethyl)-3-methoxy-1H-pyrazol-4-yl)amino)-7-methylimidazo[2,1-f][1,2,4]triazin-2-yl)-4-fluoropyrrolidin-3-yl)acrylamide]
≤ 10 | ≤ 10 | ≤ 10 | ≥ 100 | ≥ 100 | < 50 | < 50 | ≥ 300 | ≤ 10 | C=CC(=O)N[C@@H]1CN(c2nc(Nc3cn(C)nc3OC)c3ncc(C)n3n2)C[C@H]1F [Example 1, N-((3R,4R)-4-fluoro-1-(4-((3-methoxy-1-methyl-1H-pyrazol-4-yl)amino)-7-methylimidazo[2,1-f][1,2,4]triazin-2-yl)pyrrolidin-3-yl)acrylamide]
≤ 10 | ≤ 10 | ≤ 10 | ≥ 100 | ≥ 100 | < 50 | < 50 | 50 to 300 |  | C=CC(=O)N[C@@H]1CN(c2nc(Nc3cn(C4CCN(C)CC4)nc3OC)c3ncc(C)n3n2)C[C@H]1F [Example 4, N-((3R,4R)-4-fluoro-1-(4-((3-methoxy-1-(1-methylpiperidin-4-yl)-1H-pyrazol-4-yl)amino)-7-methylimidazo[2,1-f][1,2,4]triazin-2-yl)pyrrolidin-3-yl)acrylamide]
≤ 10 | ≤ 10 | ≤ 10 | ≥ 100 | ≥ 100 | 50 to 300 | < 50 | ≥ 300 | ≤ 10 | C=CC(=O)N[C@@H]1CN(c2nc(Nc3cn(C)nc3OC)c3ncn(C45CC(C4)C5)c3n2)C[C@H]1F (racemic) [Example 6, N-((3R,4R)-1-(9-(bicyclo[1.1.1]pentan-1-yl)-6-((3-methoxy-1-methyl-1H-pyrazol-4-yl)amino)-9H-purin-2-yl)-4-fluoropyrrolidin-3-yl)acrylamide]
≤ 10 | ≤ 10 | ≤ 10 | ≥ 100 | ≥ 100 | < 50 | < 50 | 50 to 300 |  | C=CC(=O)N[C@@H]1CN(c2nc(Nc3cn([C@H]4CCN(C)C4)nc3OC)c3ncc(C)n3n2)C[C@H]1F [Example 2, N-((3R,4R)-4-fluoro-1-(4-((3-methoxy-1-((S)-1-methylpyrrolidin-3-yl)-1H-pyrazol-4-yl)amino)-7-methylimidazo[2,1-f][1,2,4]triazin-2-yl)pyrrolidin-3-yl)acrylamide]
